ChEMBL document CHEMBL3046813, “Novel tetranortriterpenoid derivatives from Munronia henryi” (2003)

Experiments:
Pieris brassicae [1] = test: Antifeedant activity against Pieris brassicae third-instar larvae reared on compound pre-treated Brassica oleracea L. leaf disks assessed as insect mortality at 1000 ppm measured after 6 days by conventional leaf disk method; assay type: functional; conditions: foliar
Pieris brassicae [2] = test: Antifeedant activity against Pieris brassicae third-instar larvae reared on compound pre-treated Brassica oleracea L. leaf disks assessed antifeeding rate at 1000 ppm measured after 48 hr by conventional leaf disk method; assay type: functional

Row | Structure (SMILES) | mortality at 1000 ppm (Pieris brassicae [1]) [%] | AFI (Pieris brassicae [2]) [%]
1 | C=C1[C@@H]2[C@@H](OC(=O)C=C[C@@]2(C)[C@H]2CC(=O)OC2(C)C)[C@H](OC(C)=O)[C@@]2(C)[C@H](C3=CCOC3=O)C[C@H]3O[C@]132 [MUNRONIN C] | 10 | 31
2 | C=C1[C@@H]2[C@@H](OC(=O)C=C[C@@]2(C)[C@H]2CC(=O)OC2(C)C)[C@H](OC(C)=O)[C@@]2(C)[C@H](C(=O)O)C[C@H]3O[C@]132 [MUNRONIN F] | 0 | 0
3 | C#C[C@@H]1C[C@H]2O[C@]23C(=C)[C@@H]2[C@@H](OC(=O)C=C[C@@]2(C)[C@H]2CC(=O)OC2(C)C)[C@H](OC(C)=O)[C@@]13C [MUNRONIN E] | 10 | 37.1
4 | C/C=C(\C)C(=O)O[C@H]1C[C@@H](OC(C)=O)[C@@]2(C(=O)OC)CO[C@H]3[C@@H](O)[C@@](C)([C@]45O[C@@]4(C)[C@@H]4C[C@H]5O[C@@H]5OC=C[C@@]54O)[C@H]4[C@]1(CO[C@]4(O)C(=O)OC)[C@@H]32 [AZADIRACHTIN A] | 100 | 99.5
5 | C=C1[C@@H]2[C@@H](OC(=O)C=C[C@@]2(C)[C@H]2CC(=O)OC2(C)C)[C@H](OC(C)=O)[C@@]2(C)[C@H](C3=CC(=O)OC3O)C[C@H]3O[C@]132 (some centres undefined) [MUNRONIN B] | 10 | 20.9
6 | C=C1[C@@H]2[C@@H](OC(=O)C=C[C@@]2(C)[C@H]2CC(=O)OC2(C)C)[C@H](OC(C)=O)[C@@]2(C)[C@H](C3=CCNC3=O)C[C@H]3O[C@]132 [MUNRONIN D] | 10 | 28
7 | C=C1[C@@H]2[C@@H](OC(=O)C=C[C@@]2(C)[C@H]2CC(=O)OC2(C)C)[C@H](OC(C)=O)[C@@]2(C)[C@H](C3=CC(O)OC3=O)C[C@H]3O[C@]132 (some centres undefined) [MUNRONIN A] | 20 | 0
